Where two headings read alike, the source gives them in different places.
Experiments:
[1] = molecular target: T1, BACE1 enzyme (Homo sapiens, UniProt P56817); test: Radioligand displacement assay with a radiolabeled BACE inhibitor on HEK293-9B.A1 cell homogenate; type: binding; conditions: displacement of 1 nM tritiated radioligand, HEK293-9B.A1 homogenate, pH 5.0, 1.5 hr at 25° C.; read-out: Activity Rating (Activity based on IC50 values)
T1 construct: The HEK293-9B.A1 cell line, which overexpresses the BACE1 enzyme, was derived from HEK293 cells; endogenous in cells; washed membrane pellet / cell homogenate
Source text: There are a number of methods by which inhibitors of the BACE enzyme can be identified experimentally. The enzyme can be obtained from membrane samples from natural tissues or cultured cells or can be expressed recombinantly in a host cell by well known methods of molecular biology. The whole enzyme or a portion thereof can be expressed, for example, in bacterial, insect or mammalian cells to obtain a catalytically active enzyme species. The enzymatic activity and/or ligand binding capability of the enzyme can be assessed within these membrane samples, or the enzyme can be purified to varying extents. As an illustrative example, the nucleic acid sequence encoding the pro and catalytic domains of human BACE can be appended on the 5′ end with an untranslated and signal sequence from the gene for acetylcholinesterase, and on the 3′ end with a sequence encoding a poly-histidine tag. This cDNA can then be expressed in Drosophila melanogaster S2 cells in which the signal and pro sequences of the transcribed/translated protein are removed by cellular proteases and the catalytic domain, appended by a C-terminal poly-histidine tag, is secreted out into the cellular medium. The enzyme can then be purified from the culture medium by nickel affinity chromatography by methods well known to those trained in the art [Mallender, W. et al., “Characterization of recombinant, soluble beta-secretase from an insect cell expression system.” Mol. Pharmacol. 2001, 59: 619-626]. Similar strategies for expressing and purifying various forms of BACE in bacterial, mammalian and other cell types would be known to one skilled in the art. A preferred method for determining the potency of a test compound in binding to the BACE enzyme is by moitoring the displacement of a suitable radioligand.
Radioligand displacement assays with a radiolabeled BACE inhibitor (WO 2004 013098, compound 3, where the methoxy group is substituted for C(3H)3) were carried out using standard methods (Keen, M. (1999) in Receptor Binding Techniques (Walker, J. M. ed) p. 106 Humana Press, Totowa, N.J.). The HEK293-9B.A1 cell line, which overexpresses the BACE1 enzyme, was derived from HEK293 cells (Simmons, N. L. (1990) A cultured human renal epithelioid cell line responsive to vasoactive intestinal peptide. Exp. Physiol. 75:309-19.) by RAGE™ (Harrington, J. J. et al. (2001) Creation of genome-wide protein expression libraries using random activation of gene expression. Nat. Biotechnol. 19:440-5.; U.S. Pat. Nos. 6,410,266 and 6,361,972). T225 flask cultures of HEK293-9B.A1 were grown to 80% confluency in DMEM supplemented with 2 mM L-glutamine, 10 μg/ml penicillin, 10 μg/ml streptomycin, 3 μg/ml puromycin, 100 nM methotrexate, and 10% fetal bovine serum (Invitrogen, Carlsbad, Calif.), harvested, and resuspended at 2×10^8 cells per 10 ml of lysis buffer consisting of 50 mM HEPES pH 7.0 containing a protease inhibitor cocktail of AEBSF 104 μM, aprotinin 80 nM, leupeptin 2 μM, bestatin 4 μM, pepstatin A 1.5 μM, and E-64 1.4 μM (0.1% of protease inhibitor cocktail P8340, Sigma-Aldrich, St. Louis, Mo.) at 4° C. The resuspended cells were homogenized using a Polytron (Brinkman, Westbury, N.Y.) at setting 6 for 10 sec., then centrifuged at 48,000×g for 10 min. The resulting pellet was washed by repeating the resuspension, homogenization and centrifugation steps. The final pellet was resuspended in buffer at 4° C. to yield a total protein concentration of 5 mg/ml, then aliquots were frozen in liquid nitrogen for further storage at −70° C. Immediately before carrying out a binding assay, an aliquot of cell homogenate was thawed and diluted to a concentration of 100 μg/ml in assay buffer consisting of 50 mM HEPES pH 5.0 and 0.1% CHAPSO. […]

[2] = rcm bond, 15-membered ring

T1 sequence (P56817 46-501): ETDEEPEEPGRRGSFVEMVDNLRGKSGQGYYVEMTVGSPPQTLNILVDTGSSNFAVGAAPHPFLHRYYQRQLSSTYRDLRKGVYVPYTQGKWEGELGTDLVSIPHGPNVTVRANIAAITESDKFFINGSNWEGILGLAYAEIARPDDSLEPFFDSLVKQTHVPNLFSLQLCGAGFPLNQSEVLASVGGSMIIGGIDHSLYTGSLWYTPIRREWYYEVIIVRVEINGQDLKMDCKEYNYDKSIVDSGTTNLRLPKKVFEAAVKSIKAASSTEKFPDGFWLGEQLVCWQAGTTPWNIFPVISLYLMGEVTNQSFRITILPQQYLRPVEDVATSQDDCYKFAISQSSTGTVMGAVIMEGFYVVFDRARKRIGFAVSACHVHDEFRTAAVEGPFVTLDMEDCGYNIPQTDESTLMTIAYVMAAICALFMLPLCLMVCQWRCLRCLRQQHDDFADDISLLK

SMILES | IC50 [1] [nM] | also measured
COc1ccc2c(c1)[C@@H]1C[C@H]2OCC=CC[C@H](N2CCCC2=O)C(=O)N[C@@H](Cc2cc(F)cc(F)c2)[C@H](O)CN1 [Example 3, (1S,4R,5S,8S,14R)-5-(3,5-Difluoro-benzyl)-4-hydroxy-18-methoxy-8-(2-oxo-pyrrolidin-1-yl)-13-oxa-2,6-diaza-tricyclo[12.6.1.0^15,20]henicosa-10,15(20),16,18-tetraen-7-one] | 10 to 1000 | ring closure, yield after HPLC ([2]; from C=CCO[C@@H]1C[C@H](NC[C@@H](O)[C@H](Cc2cc(F)cc(F)c2)NC(=O)[C@H](CC=C)N2CCCC2=O)c2cc(OC)ccc21, Hoveyda-Grubbs II (20 mol%), CH2Cl2, 7.15 mM, 25.0 °C, 16.0 h): 70%
COc1ccc2c(c1)C1CC2OCCCCC(N2CCCC2=O)C(=O)N[C@@H](Cc2ccccc2)[C@H](O)CN1 (stereo partly drawn) [Example 2, (4R,5S)-5-Benzyl-4-hydroxy-18-methoxy-8-(2-oxo-pyrrolidin-1-yl)-13-oxa-2,6-diaza-tricyclo[12.6.1.0^15,20]henicosa-15(20),16,18-trien-7-one] | > 1000 | 
CCCC[C@H]1CCN([C@H]2CCCCO[C@@H]3C[C@H](NC[C@@H](O)[C@H](Cc4cc(F)cc(F)c4)NC2=O)c2cc(OC)ccc23)C1=O [Example 5, (1S,4R,5S,8S,14R)-8-((S)-3-Butyl-2-oxo-pyrrolidin-1-yl)-5-(3,5-difluoro-benzyl)-4-hydroxy-18-methoxy-13-oxa-2,6-diaza-tricyclo[12.6.1.0^15,20]henicosa-15(20),16,18-trien-7-one] | < 10 | 
CCCC[C@H]1CCN([C@H]2CC=CCO[C@@H]3C[C@H](NC[C@@H](O)[C@H](Cc4cc(F)cc(F)c4)NC2=O)c2cc(OC)ccc23)C1=O [Example 4, (1S,4R,5S,8S,14R)-8-((S)-3-Butyl-2-oxo-pyrrolidin-1-yl)-5-(3,5-difluoro-benzyl)-4-hydroxy-18-methoxy-13-oxa-2,6-diaza-tricyclo[12.6.1.0^15,20]henicosa-10,15(20),16,18-tetraen-7-one] | < 10 | ring closure, yield after HPLC ([2]; from C=CCO[C@@H]1C[C@H](NC[C@@H](O)[C@H](Cc2cc(F)cc(F)c2)NC(=O)[C@H](CC=C)N2CC[C@H](CCCC)C2=O)c2cc(OC)ccc21, Hoveyda-Grubbs II (10 mol%), CH2Cl2, 25.0 °C, 72.0 h): 46%
COc1ccc2c(c1)[C@@H]1C[C@H]2OCC=CC[C@H](N2CC[C@H](CC(C)C)C2=O)C(=O)N[C@@H](Cc2ccccc2)[C@H](O)CN1 [Example 7, (1S,4R,5S,8S,14R)-5-Benzyl-4-hydroxy-8-((S)-3-isobutyl-2-oxo-pyrrolidin-1-yl)-18-methoxy-13-oxa-2,6-diaza-tricyclo[12.6.1.0^15,20]henicosa-10,15(20),16,18-tetraen-7-one] | < 10 | ring closure, yield after HPLC ([2]; from C=CCO[C@@H]1C[C@H](NC[C@@H](O)[C@H](Cc2ccccc2)NC(=O)[C@H](CC=C)N2CC[C@H](CC(C)C)C2=O)c2cc(OC)ccc21, Hoveyda-Grubbs II (10 mol%), CH2Cl2, 8.9 mM, 25.0 °C, 16.0 h): 75%
CCC(C)[C@@]1(NC(C)=O)CCN([C@H]2CC=CCO[C@@H]3C[C@H](NC[C@@H](O)[C@H](Cc4ccccc4)NC2=O)c2cc(OC)ccc23)C1=O (stereo partly drawn) [Example 6, N—[(S)-1-((1S,4R,5S,8S,14R)-5-Benzyl-4-hydroxy-18-methoxy-7-oxo-13-oxa-2,6-diaza-tricyclo[12.6.1.0^15,20]henicosa-10,15(20),16,18-tetraen-8-yl)-3-sec-butyl-2-oxo-pyrrolidin-3-yl]-acetamide] | < 10 | ring closure, yield after HPLC ([2]; from C=CCO[C@@H]1C[C@H](NC[C@@H](O)[C@H](Cc2ccccc2)NC(=O)[C@H](CC=C)N2CC[C@](NC(C)=O)(C(C)CC)C2=O)c2cc(OC)ccc21, Hoveyda-Grubbs II (10 mol%), dichloroethane, 50.0 °C, 16.0 h): 50%
COc1ccc2c(c1)C1CC2OCC=CCC(N2CCCC2=O)C(=O)N[C@@H](Cc2ccccc2)[C@H](O)CN1 (stereo partly drawn) [Example 1, (4R,5S)-5-Benzyl-4-hydroxy-18-methoxy-8-(2-oxo-pyrrolidin-1-yl)-13-oxa-2,6-diaza-tricyclo[12.6.1.0^15,20]henicosa-10,15(20),16,18-tetraen-7-one] | > 1000 | ring closure, yield after HPLC ([2]; from C=CCOC1CC(NC[C@@H](O)[C@H](Cc2ccccc2)NC(=O)C(CC=C)N2CCCC2=O)c2cc(OC)ccc21, Grubbs II (20 mol%)/TsOH.H2O, CH2Cl2, 8.75 mM, 25.0 °C, 18.0 h): 97%

Reference: patent publication US7338974B2, “Macrocyclic diaminopropanes as beta-secretase inhibitors” (Bristol-Myers Squibb Company, priority 2005, dated 2008)
